Assays:
human OATP2B1 = target: T1, human OATP2B1 (Homo sapiens, UniProt O94956); assay: Uptake assay for radiolabeled substrates, human OATP2B1 expressing 293FT cells; format: in vitro ADME; settings: 10‐min incubation
T1 construct: expressed in transfected cells; host or cells: 293FT cells
T1 sequence (O94956 1-709): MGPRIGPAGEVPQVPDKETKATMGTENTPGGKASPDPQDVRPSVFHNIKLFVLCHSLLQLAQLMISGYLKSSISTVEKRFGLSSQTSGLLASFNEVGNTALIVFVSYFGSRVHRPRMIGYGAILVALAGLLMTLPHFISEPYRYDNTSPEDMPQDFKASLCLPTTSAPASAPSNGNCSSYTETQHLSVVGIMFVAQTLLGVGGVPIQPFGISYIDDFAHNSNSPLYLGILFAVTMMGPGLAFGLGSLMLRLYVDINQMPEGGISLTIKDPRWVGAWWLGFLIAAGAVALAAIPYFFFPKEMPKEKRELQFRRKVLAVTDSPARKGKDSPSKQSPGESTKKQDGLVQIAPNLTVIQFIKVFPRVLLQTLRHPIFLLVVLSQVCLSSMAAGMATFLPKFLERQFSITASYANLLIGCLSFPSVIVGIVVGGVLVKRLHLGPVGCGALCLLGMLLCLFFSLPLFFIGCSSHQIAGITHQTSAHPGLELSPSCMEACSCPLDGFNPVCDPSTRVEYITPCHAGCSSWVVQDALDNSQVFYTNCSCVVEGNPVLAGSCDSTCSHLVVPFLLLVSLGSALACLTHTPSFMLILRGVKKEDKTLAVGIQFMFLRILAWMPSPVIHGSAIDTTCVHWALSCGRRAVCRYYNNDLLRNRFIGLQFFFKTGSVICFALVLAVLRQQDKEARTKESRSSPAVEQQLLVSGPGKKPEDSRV
Procedure: (§1) 293FT cells were purchased from Thermo Fisher Scientific, Inc.. The cells were grown in Dulbecco's modified Eagle medium (supplemented with 4.5 g/L glucose and 2 mM L‐glutamine) at 37°C, 5% CO2, and 95% humidity. The cells were passaged 3 times per week by harvesting cells using trypsin and plating at a density of 1.0 × 10^4 cells/cm^2 in a 10 cm cell culture plate for maintenance culture. The 293FT cells were detached using trypsin and re‐seeded at a density of 2.5 × 10^4 cells/cm^2 in BioCoat™ Collagen I 6‐well plates (Corning Inc.) for transfection and then treated with 1.2 μg of plasmid vector and 3.2 μl of Lipofectamine™ 2000 Transfection Reagent (Thermo Fisher Scientific, Inc.) according to the manufacturer's instructions. After a 3‐h treatment, the transfection medium was replaced with a fresh cell culture medium and incubated at 37°C with 95% humidity and 5% CO2 until ready for the assay.
(§2) Transport experiments were conducted approximately 24 h post‐transfection. The experiments were initiated by aspirating culture medium and addition of pre‐warmed radiolabeled substrate solution (final 1.0% of acetonitrile or 0.9% of ethanol in phosphate‐buffered saline (PBS[−])) to each well. After a 10‐min incubation, cells were washed twice with 1 ml of ice‐cold PBS(−) and lysed with 700 μl of 1.0 M NaOH for 3 h or more at room temperature. The lysate was transferred to a 1.5‐ml tube, and neutralized with 350 μl of 2.0 M HCl and 350 μl of 2.0% sodium dodecyl sulfate (SDS) solution. From the lysate, 1.0 ml was transferred to a vial containing 10 ml of Emulsifier Scintillator Plus to measure the radioactivity in the LSC. The protein concentration of the cell lysate was also measured using a Pierce™ BCA Protein Assay Kit (Thermo Fisher Scientific, Inc.), which was used to normalize, according to the cell number, the radioactivity in the cell lysate extract. The protein assay was performed in duplicate. Each sample type was assayed in triplicate wells, and each run was performed twice. When the difference in mean uptake between OATP expressing cells and mock cells was more than 2 times, the OATP was judged to be involved in transportation of the substrate. […] Each sample type was assayed in triplicate wells.

mouse Oatp1a1 = target: T2, mouse Oatp1a1 (Mus musculus, UniProt Q9QXZ6); assay: Uptake assay for radiolabeled substrates, mouse Oatp1a1 expressing 293FT cells; format: in vitro ADME; design: expressed in transfected cells; host or cells: 293FT cells; settings: for Ratio of uptake amount relative to the uptake into mock cells: 10‐min incubation
T2 sequence (Q9QXZ6 1-670): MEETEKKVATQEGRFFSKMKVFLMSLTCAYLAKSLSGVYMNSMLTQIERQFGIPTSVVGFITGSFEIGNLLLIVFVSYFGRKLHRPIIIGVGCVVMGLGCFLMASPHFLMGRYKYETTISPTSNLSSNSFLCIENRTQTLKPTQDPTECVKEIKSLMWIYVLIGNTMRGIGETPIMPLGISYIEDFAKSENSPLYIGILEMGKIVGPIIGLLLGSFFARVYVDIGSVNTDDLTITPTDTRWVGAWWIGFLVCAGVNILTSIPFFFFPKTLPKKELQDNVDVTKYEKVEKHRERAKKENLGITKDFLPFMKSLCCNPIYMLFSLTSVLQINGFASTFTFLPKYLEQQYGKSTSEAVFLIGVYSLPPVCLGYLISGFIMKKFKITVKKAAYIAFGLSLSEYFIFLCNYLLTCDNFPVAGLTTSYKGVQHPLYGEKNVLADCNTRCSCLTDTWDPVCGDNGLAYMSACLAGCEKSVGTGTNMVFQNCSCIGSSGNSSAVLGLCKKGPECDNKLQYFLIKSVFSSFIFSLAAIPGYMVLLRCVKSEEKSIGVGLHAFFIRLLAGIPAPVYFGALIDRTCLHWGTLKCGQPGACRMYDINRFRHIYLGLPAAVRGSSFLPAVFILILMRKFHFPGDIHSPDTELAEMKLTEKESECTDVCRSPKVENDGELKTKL
Procedure: as §1, §2

Cn1c(C(F)(F)F)cc(=O)n(-c2cc(Oc3cccnc3OCC(=O)O)c(Cl)cc2F)c1=O [S‐3100‐CA]
Ratio of uptake amount relative to the uptake into mock cells (human OATP2B1; Run_1): 2.6 | Ratio of uptake amount relative to the uptake into mock cells (human OATP2B1; Run_2): 1.9 | Ratio of uptake amount relative to the uptake into mock cells (mouse Oatp1a1; Run_1): 3.3 | Ratio of uptake amount relative to the uptake into mock cells (mouse Oatp1a1; Run_2): 4.3

C[C@]12CC[C@@H]3c4ccc(OS(=O)(=O)O)cc4CC[C@H]3[C@@H]1CCC2=O [E3S, Estrone 3‐sulfate]
Ratio of uptake amount relative to the uptake into mock cells (human OATP2B1; Run_1): 16.2 | Ratio of uptake amount relative to the uptake into mock cells (human OATP2B1; Run_2): 1.9 | Ratio of uptake amount relative to the uptake into mock cells (mouse Oatp1a1; Run_1): 23.4 | Ratio of uptake amount relative to the uptake into mock cells (mouse Oatp1a1; Run_2): 34.4

C[C@]12CC[C@@H]3c4ccc(O)cc4CC[C@H]3[C@@H]1CC[C@@H]2O[C@@H]1O[C@H](C(=O)O)[C@@H](O)[C@H](O)[C@H]1O [E217βG, Estradiol 17β‐D‐glucuronide]
Ratio of uptake amount relative to the uptake into mock cells (human OATP2B1; Run_1): 1.9 | Ratio of uptake amount relative to the uptake into mock cells (human OATP2B1; Run_2): 0.6 | Uptake, times higher than in mock cells (mouse Oatp1a1): > 50 times | Ratio of uptake amount relative to the uptake into mock cells (mouse Oatp1a1; Run_1): 84.9 | Ratio of uptake amount relative to the uptake into mock cells (mouse Oatp1a1; Run_2): 62.2
